# Data taken from patent US12595259B2, “Aminopyridine compound” (ZHUHAI UNITED LABORATORIES CO., LTD., priority 2020, dated 2026).
# Experiment: Experiment of aldehyde-trapping ability in vitro
# Conditions: for percentage content of the complex product (HPLC, 254 nm): nonanal 1.0 eq, compound 1.0 eq, 20 to 23° C.
# Procedure: Objective: xerophthalmia is caused by inflammations inside the eye, and these inflammations would produce some aldehydes in vivo. If these aldehydes are not eliminated in time, the symptoms of inflammations would be accelerated and worsen the xerophthalmia. In this experiment, by simulating the in vivo environment, a relatively preferred compound was selected according to the complexing ability of the drug and the aldehyde in vivo.
# Process: sulfobutyl-B-cyclodextrin (310 mg) was dissolved in phosphate buffer (1.25 mL) to prepare a solution.
# Nonanal (5.0 mg, 32 μmol, 1.0 eq) and glyceryl trioleate (300 mg) were added into a reaction flask at room temperature. After the above prepared solution was added thereto, linoleic acid (300 mg) was then added thereto, and finally a dimethyl sulfoxide (0.15 mL) solution containing the compound of the present disclosure (32 μmol, 1.0 eq) was added thereto. The reaction solution was reacted at 20 to 23° C.
# After stirring and reacting for 10 minutes, 100 minutes, 200 minutes, and 300 minutes, respectively, the reaction solution was allowed to stand for 2 minutes, layered and then sampled for high performance liquid detection.
# Sampling method: 25 μL of the upper emulsion layer and 50 μL of the lower aqueous phase were sampled with a pipette, and diluted with 1 mL of methanol.
# Nonanal has weak ultraviolet absorption at a wavelength of 254 nm, and has little influence on the content of complexation product as a whole. Therefore, the percentage content of the complexed compound at 254 nm in high performance liquid phase was compared to observe the ability of the compound to trap and complex aldehyde.
# The HPLC analysis method is shown in Table 1 below, which is XBRIGE 2.5 μm, 3.0*100 mm 5-95CD_XBEH_12 min_0.8.lcm
compound,measurement,setting,value
CC(C)(O)c1ncc(-c2nc(C(C)(C)O)c(N)s2)cc1N [Compound 1],Area under the curve AUC,"complex product content against time, 10 to 300 minutes",1874 min. conversion rate
same,Slope,"linear fit of complex product content against time, 10 to 300 minutes",0.0394
same,"percentage content of the complex product (HPLC, 254 nm)",reaction time 10 minutes,1.095
same,"percentage content of the complex product (HPLC, 254 nm)",reaction time 100 minutes,4.751
same,"percentage content of the complex product (HPLC, 254 nm)",reaction time 200 minutes,8.764
same,"percentage content of the complex product (HPLC, 254 nm)",reaction time 300 minutes,12.496
